22 compounds from patent US5889026A, “4-hydroxy-piperodine derivatives” (Hoffmann-La Roche Inc., priority 1996, dated 1999) can be followed below.

Experiment [1] deals with 3H-Prazosine binding. Briefly: 3H-Prazosine binding. To be noted: rat brain membranes (minus cerebellum and medulla oblongata); 0.2 nM 3H-Prazosine; 30 minutes at room temperature, pH 7.4. The procedure: 3H-Prazosine binding Male Fullinsdorf albino rats weighing between 150-200 g were used. Membranes were prepared by homogenization of the whole brain minus cerebellum and medulla oblongata with a Plytron (10.000 rpm, 30 seconds), in 25 volumes of a cold Tris-HCl 50 mM, EDTA 10 mM, pH 7.1 buffer. The homogenate was centrifuged at 48.000 g for 10 minutes at 4° C. The pellet was resuspended using the Polytron in the same volume of buffer and the homogenate was incubated at 37° C. for 10 minutes. After centrifugation, the pellet was homogenized in the same buffer and frozen at -80° C. for at least 16 hours but not more than 10 days. For the binding assay the homogenate was thawed at 37° C., centrifuged and the pellet was washed three times as above in a Tris-HCl 5 mM, pH 7.4 cold buffer. The final pellet was resuspended in the same buffer and used at a final concentration of […]. 3H-Prazosine binding experiments were performed using a Tris-HCl 50 mM, pH 7.4 buffer. For displacement experiments 0.2 nM of 3H-Prazosine were used and non specific binding was measured using […] of Chlorpromazine. The incubation time was 30 minutes at room temperature and the assay was stopped by filtration on Whatman GF/B glass fiber filters (Unifilter-96, Canberra Packard S. A., Zurich, Switzerland). The filters were washed 5 times with cold buffer. The radioactivity on the filter was counted on a Packard Top-count microplate scintillation counter after addition of […] of microscint 40 (Canberra Packard S. A., Zurich, Switzerland). The effects of compounds were measured using a minimum of 8 concentrations and repeated at least once. The pooled normalized values were analyzed using a non-linear regression calculation program which provide IC50 with their relative upper and lower 95% confidence limits (RS1, BBN, USA).

Experiment [2] concerns the target T1, NR1C + NR2A (NMDAR1C-NMDAR2A) (Rattus norvegicus, UniProt Q00959).
T1 construct: expressed in transfected cells; host or cells: Xenopus laevis oocytes injected with mRNA (1:1 mixture)
Briefly: Electrophysiology on recombinant NMDA receptors, NR1C + NR2A, Xenopus laevis oocytes. The experiment is classed as cell-based. Conditions: read-out: Electrophysiology, % block by 10 μM, NR1C + NR2A.
Method: (§1) Oocytes of South African frogs (Xenopus laevis) were used for expressing either a combination of the NMDAR1C and NMDAR2A subunits or the NMDAR1C and NMDAR2B subunits. Approximately 3 fmol of a 1:1 mixture of the respective MRNA species were injected into every oocyte. Four to five days later, the ion current through the NMDA receptor channels was measured in voltage clamp experiments (see Methfessel et al., 1986, Pflugers Arch. 407:577 for the methods of oocyte expression and voltage-clamping). The membrane potential was clamped to -80 mV and the receptors were activated by applying a modified Ringer,s solution containing the NMDA-receptor agonists L-asparatate (Asp) and glycine (Gly). Different agonist concentrations were chosen for either subunit combination to account for the different agonist sensitivities of the two types of receptors (70 mM Asp plus 2.5 mM Gly for NMDAR1C-NMDAR2A and 15 mM Asp plus 0.2 mM Gly for NMDAR1C-NMDAR2B). The agonists were applied for 15 s intervals once every 2.5 min by rapid superfusion of the oocyte with agonist containing solution and the amplitude of the agonist-evoked current was measured immediately before the end of each application. After a series of initial control applications, the antagonist to be tested was added to both, the basal Ringer,s and the agonist containing solution. The antagonist concentration applied to oocytes expressing the NR2A subunit was 10 mmol/l, whereas 0.1 mmol/l were applied to the NR2B expressing oocytes. Four to eight oocytes were tested for every compound and NMDA receptor subtype. Oocytes were exposed to the compounds for 5 to 30 min depending on the time needed for reaching an equilibrium block of the NMDA receptor current. For every oocyte the decrease of the current amplitude was expressed as a percentage of the control current measured before application of the compound.

The target in experiment [3] is T2, NR1C + NR2B (NMDAR1C-NMDAR2B) (Rattus norvegicus, UniProt P35439+Q00960).
T2 construct: expressed in transfected cells; host or cells: Xenopus laevis oocytes injected with mRNA (1:1 mixture)
Briefly: Electrophysiology on recombinant NMDA receptors, NR1C + NR2B, Xenopus laevis oocytes. The experiment is classed as cell-based. To be noted: read-out: Electrophysiology, % block by 0.1 μM, NR1C + NR2B.
Method: as §1

In experiment [4] the target is T3, 3H-Ro 25-6981 binding (NMDA receptor) (Rattus norvegicus, UniProt P35439+Q00960).
T3 construct: NR1 splice forms mixed
Briefly: 3H-Ro 25-6981 binding. To be noted: rat brain membranes (minus cerebellum and medulla oblongata); 5 nM 3H-Ro 25-6981; 2 hours at 4° C., pH 7.4.

Setting [5] is: 10 μM compound, Xenopus laevis oocytes, -80 mV, mean of four to eight oocytes.
Setting [6] is: 0.1 μM compound, Xenopus laevis oocytes, -80 mV, mean of four to eight oocytes.

Counter-ions that a name gives are not always drawn. Like-named read-outs stand apart in the source and are kept apart here.

T1 sequence (Q00959 23-1464, other chains not shown): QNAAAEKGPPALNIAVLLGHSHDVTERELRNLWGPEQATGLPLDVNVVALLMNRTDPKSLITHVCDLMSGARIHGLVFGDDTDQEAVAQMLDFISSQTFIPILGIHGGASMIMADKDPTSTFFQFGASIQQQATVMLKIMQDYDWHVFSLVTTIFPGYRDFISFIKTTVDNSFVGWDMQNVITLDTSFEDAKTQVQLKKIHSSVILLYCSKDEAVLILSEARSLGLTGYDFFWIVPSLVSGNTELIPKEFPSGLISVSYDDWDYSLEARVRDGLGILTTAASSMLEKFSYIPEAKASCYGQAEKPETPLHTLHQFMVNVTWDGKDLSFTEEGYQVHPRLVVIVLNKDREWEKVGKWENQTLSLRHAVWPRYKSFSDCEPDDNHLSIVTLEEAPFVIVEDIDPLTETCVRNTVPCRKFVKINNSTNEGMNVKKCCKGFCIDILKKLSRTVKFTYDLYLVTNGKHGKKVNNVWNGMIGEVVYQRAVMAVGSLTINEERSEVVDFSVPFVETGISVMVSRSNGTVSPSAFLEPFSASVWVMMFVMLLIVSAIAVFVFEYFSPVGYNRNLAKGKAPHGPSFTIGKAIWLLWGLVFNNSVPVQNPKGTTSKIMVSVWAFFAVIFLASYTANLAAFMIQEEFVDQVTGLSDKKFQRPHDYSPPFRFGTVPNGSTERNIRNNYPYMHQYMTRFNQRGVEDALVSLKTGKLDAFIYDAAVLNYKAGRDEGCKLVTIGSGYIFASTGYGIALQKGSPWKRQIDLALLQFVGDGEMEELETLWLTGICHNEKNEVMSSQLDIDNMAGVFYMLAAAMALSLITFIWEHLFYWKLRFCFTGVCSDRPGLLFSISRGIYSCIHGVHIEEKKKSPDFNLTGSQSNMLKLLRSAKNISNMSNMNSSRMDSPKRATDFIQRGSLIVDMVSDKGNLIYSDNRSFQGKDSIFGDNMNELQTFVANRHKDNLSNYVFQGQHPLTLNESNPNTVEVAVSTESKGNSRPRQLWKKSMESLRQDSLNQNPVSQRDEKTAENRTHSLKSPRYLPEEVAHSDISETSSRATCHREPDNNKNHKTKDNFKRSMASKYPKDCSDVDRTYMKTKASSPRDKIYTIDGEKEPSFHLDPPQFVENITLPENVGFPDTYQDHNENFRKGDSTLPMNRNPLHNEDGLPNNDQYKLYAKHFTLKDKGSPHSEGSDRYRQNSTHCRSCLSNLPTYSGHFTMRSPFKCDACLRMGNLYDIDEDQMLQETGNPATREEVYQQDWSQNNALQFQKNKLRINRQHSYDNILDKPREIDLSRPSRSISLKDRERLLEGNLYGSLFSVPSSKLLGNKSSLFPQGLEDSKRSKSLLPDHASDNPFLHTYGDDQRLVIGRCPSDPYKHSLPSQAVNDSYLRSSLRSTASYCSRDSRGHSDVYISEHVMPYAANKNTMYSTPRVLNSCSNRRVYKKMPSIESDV
T2 sequence (Q00960 27-1482, other chains not shown): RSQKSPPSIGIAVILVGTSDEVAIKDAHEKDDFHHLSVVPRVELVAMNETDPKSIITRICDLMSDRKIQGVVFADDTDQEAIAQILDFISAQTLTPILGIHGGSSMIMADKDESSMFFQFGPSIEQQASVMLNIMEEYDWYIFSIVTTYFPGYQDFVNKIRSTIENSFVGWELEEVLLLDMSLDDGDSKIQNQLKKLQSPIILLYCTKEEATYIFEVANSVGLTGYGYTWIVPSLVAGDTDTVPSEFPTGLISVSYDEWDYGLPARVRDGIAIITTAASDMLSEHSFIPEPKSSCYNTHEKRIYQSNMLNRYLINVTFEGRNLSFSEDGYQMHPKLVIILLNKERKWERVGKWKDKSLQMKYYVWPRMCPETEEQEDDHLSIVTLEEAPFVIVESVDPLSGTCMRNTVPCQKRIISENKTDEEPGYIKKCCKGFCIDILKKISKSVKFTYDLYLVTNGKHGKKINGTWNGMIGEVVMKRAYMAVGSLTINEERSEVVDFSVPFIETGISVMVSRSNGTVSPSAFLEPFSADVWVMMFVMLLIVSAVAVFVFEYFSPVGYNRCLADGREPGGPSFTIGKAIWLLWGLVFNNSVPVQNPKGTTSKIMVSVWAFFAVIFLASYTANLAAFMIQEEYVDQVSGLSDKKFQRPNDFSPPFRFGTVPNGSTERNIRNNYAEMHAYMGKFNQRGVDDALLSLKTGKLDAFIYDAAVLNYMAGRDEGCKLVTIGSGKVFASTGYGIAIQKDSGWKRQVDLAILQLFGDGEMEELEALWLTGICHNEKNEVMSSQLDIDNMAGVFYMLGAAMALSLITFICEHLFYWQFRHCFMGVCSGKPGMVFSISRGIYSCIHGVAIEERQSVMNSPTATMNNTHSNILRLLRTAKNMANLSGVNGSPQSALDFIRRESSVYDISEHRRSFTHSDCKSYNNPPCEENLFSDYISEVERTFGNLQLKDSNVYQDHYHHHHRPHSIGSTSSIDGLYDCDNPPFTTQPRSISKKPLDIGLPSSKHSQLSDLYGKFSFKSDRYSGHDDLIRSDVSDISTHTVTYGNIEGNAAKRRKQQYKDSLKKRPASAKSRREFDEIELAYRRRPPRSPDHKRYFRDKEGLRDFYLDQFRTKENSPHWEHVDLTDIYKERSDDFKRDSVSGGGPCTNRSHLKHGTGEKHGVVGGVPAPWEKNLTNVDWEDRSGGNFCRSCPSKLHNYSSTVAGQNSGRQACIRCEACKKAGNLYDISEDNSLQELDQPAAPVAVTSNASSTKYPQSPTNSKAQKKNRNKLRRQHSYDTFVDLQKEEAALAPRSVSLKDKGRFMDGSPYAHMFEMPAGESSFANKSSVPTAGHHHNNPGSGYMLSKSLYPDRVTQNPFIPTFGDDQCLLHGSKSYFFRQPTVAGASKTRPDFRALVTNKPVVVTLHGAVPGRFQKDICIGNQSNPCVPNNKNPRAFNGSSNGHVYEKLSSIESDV
T3 sequence (Q00960 27-1482, other chains not shown): as above

Turning to `Cc1ccc(CC2(O)CCN(CC(O)COc3ccc(O)cc3)CC2)cc1` (racemic) [A/1, (RS)-1-[2-Hydroxy-3-(4-hydroxy-phenoxy)-propyl]-4-(4-methyl-benzyl)-piperidin-4-ol hydrochloride], the results for the concentration for half-maximal inhibition (IC50) in experiment [1] and in experiment [4] were 1500 nM and 15 nM, respectively. Besides, the inhibition at 10 µM in experiment [2] is 29%. Besides, the inhibition at 0.1 µM in experiment [3] came out at 96%.

Take `Oc1ccc(CC(O)CN2CCC(O)(Cc3ccccc3)CC2)cc1` (racemic) [L/30, (RS)-4-Benzyl-1-[2-hydroxy-3-(4-hydroxy-phenyl)-propyl]-piperidin-4-ol]: the values for the IC50 in experiment [1] and in experiment [4] were 7400 nM and 60 nM, respectively.

As for `Cc1ccc(CC2(O)CCN(CC(O)Cc3ccc(O)cc3)CC2)cc1` (racemic) [M/31, (RS)-1-[2-Hydroxy-3-(4-hydroxy-phenyl)-propyl]-4-(4-methyl-benzyl)-piperidin-4-ol], the IC50 (commonly the concentration that inhibits the measured activity by half) in experiment [1] is 9700 nM; in experiment [4] it was 20 nM. Besides, in experiment [2] (setting [5]), the inhibition at 10 µM is 10%. In addition, the inhibition at 0.1 µM in experiment [3] (setting [6]) came out at 89%.

Turning to `Oc1ccc(CC(O)CN2CCC(O)(Cc3ccc(Cl)cc3)CC2)cc1` (racemic) [N/32, (RS)-4-(4-Chloro-benzyl)-1-[2-hydroxy-3-(4-hydroxy-phenyl)-propyl]-piperidin-4-ol], the IC50 in experiment [1] worked out at 9200 nM; in experiment [4], 40 nM. In addition, the inhibition at 10 µM in experiment [2] (setting [5]) amounted to 19%. For the same compound, the inhibition at 0.1 µM in experiment [3] (setting [6]) came out at 81%.

Take `Cc1ccc(CC2(O)CCN(CC(O)Cc3ccc(O)c(F)c3)CC2)cc1` (racemic) [W/94, (RS)-1-[3-(3-Fluoro-4-hydroxy-phenyl)-2-hydroxy-propyl]-4-(4-methyl-benzyl)-piperidin-4-ol hydrochloride]: the IC50 in experiment [1] turned out to be 6600 nM; in experiment [4], 20 nM.

For `Oc1ccc(OC[C@@H](O)CN2CCC(O)(Cc3ccccc3)CC2)cc1` [B/5, (S)-4-Benzyl-1-[2-hydroxy-3-(4-hydroxy-phenoxy)-propyl]-piperidin-4-ol], the results for the IC50 in experiment [1] and in experiment [4] were 4000 nM and 60 nM, respectively.

On to `Cc1ccc(CC2(O)CCN(CCOc3ccc(O)cc3)CC2)cc1` [C/9, 1-[2-(4-Hydroxy-phenoxy)-ethyl]-4-(4-methyl-benzyl)-piperidin-4-ol], for which the 50% inhibitory concentration (IC50) in experiment [1] came to 3500 nM. The inhibition at 10 µM in experiment [2] (setting [5]) was 31%. Also, the inhibition at 0.1 µM in experiment [3] (setting [6]) turned out to be 88%.

As for `Oc1ccc(OCCN2CCC(O)(Cc3ccc(F)cc3)CC2)cc1` [D/10, 4-(4-Fluoro-benzyl)-1-[2-(4-hydroxy-phenoxy)-ethyl]-piperidin-4-ol], the IC50 in experiment [1] came out at 3000 nM; in experiment [4], 40 nM.

Consider `Cc1ccc(CC2(O)CCN(CCOc3ccc(NS(C)(=O)=O)cc3)CC2)cc1` [E/11, N-(4-{2-[4-hydroxy-4-(4-methyl-benzyl)-piperidin-1-yl]-ethoxy}-phenyl)-methanesulfonamide hydrochloride], for which the IC50 is 5000 nM in experiment [1] and 30 nM in experiment [4]. Further, in experiment [2], the inhibition at 10 µM was 27%. In addition, the inhibition at 0.1 µM in experiment [3] turned out to be 91%.

As to `CS(=O)(=O)Nc1ccc(OCCN2CCC(O)(Cc3ccc(F)cc3)CC2)cc1` [F/12, N-(4-{2-[4-(4-fluoro-benzyl)-4-hydroxy-piperidin-1-yl]-ethoxy}-phenyl)-methanesulfonamide], the IC50 was found to be 6000 nM in experiment [1] and 60 nM in experiment [4].

As for `CS(=O)(=O)Nc1ccc(OCCN2CCC(O)(Cc3ccc(Cl)cc3)CC2)cc1` [G/13, N-(4-{2-[4-(4-Chloro-benzyl)-4-hydroxy-piperidin-1-yl]-ethoxy}-phenyl)-methanesulfonamide], the values for the IC50 in experiment [1] and in experiment [4] were 9000 nM and 30 nM, respectively.

Regarding `CS(=O)(=O)Nc1ccc(OCCCN2CCC(O)(Cc3ccc(F)cc3)CC2)cc1` [H/14, N-(4-{3-[4-(4-Fluoro-benzyl)-4-hydroxy-piperidin-1-yl]-propoxy}-phenyl)-methanesulfonamide], the IC50 in experiment [1] was 1800 nM; in experiment [4] it was 40 nM.

In the case of `Cc1ccc(CC2(O)CCN(C(C)COc3ccc(O)cc3)CC2)cc1` (stereo not drawn) [I/22, 1-[2-(4-Hydroxy-phenoxy)-1-methyl-ethyl]-4-(4-methyl-benzyl)-piperidin-4-ol], the figures for the IC50 in experiment [1] and in experiment [4] were 2500 nM and 40 nM, respectively.

On to `O=C(CN1CCC(O)(Cc2ccccc2)CC1)Nc1ccc(O)cc1` [J/23, 2-(4-Benzyl-4-hydroxy-piperidin-1-yl)-N-(4-hydroxy-phenyl)-acetamide], for which the half-inhibitory concentration (IC50) stood at 20000 nM in experiment [1] and 70 nM in experiment [4].

Consider `Cc1ccc(CC2(O)CCN(CC(=O)Nc3ccc(O)cc3)CC2)cc1` [K/24, 2-[4-Hydroxy-4-(4-methyl-benzyl)-piperidin-1-yl]-N-(4-hydroxy-phenyl)-acetamide], for which the IC50 in experiment [1] worked out at 30000 nM; in experiment [4], 40 nM. In addition, the inhibition at 10 µM in experiment [2] (setting [5]) is 10%. In addition, the inhibition at 0.1 µM in experiment [3] (setting [6]) was 83%.

`Cc1ccc(CC2(O)CCN(CCOC(=O)c3ccc(O)cc3)CC2)cc1` [O/34, 4-Hydroxy-benzoic acid 2-[4-hydroxy-4-(4-methyl-benzyl)-piperidin-1-yl]ethylester]: the IC50 in experiment [1] is 800 nM; in experiment [4] it was 10 nM.

`Cc1ccc(CC2(O)CCN(CCCOC(=O)c3ccc(O)cc3)CC2)cc1` [P/35, 4-Hydroxy-benzoic acid 3-[4-hydroxy-4-(4-methyl-benzyl)-piperidin-1-yl]-propylester]: the IC50 in experiment [1] turned out to be 260 nM; in experiment [4], 3 nM.

As for `O=C(NCCN1CCC(O)(Cc2ccccc2)CC1)c1ccc(O)cc1` [Q/36, N-[2-(4-Benzyl-4-hydroxy-piperidin-1-yl)-ethyl]-4-hydroxy-benzamide], the IC50 in experiment [1] amounted to 5000 nM; in experiment [4], 10 nM.

Consider `Cc1ccc(CC2(O)CCN(CCNC(=O)c3ccc(O)cc3)CC2)cc1` [R/37, 4-Hydroxy-N-[2-[4-hydroxy-4-(4-methyl-benzyl)-piperidin-1-yl]-ethyl]-benzamide], for which the IC50 in experiment [1] came to 5300 nM; in experiment [4], 6 nM. For the same compound, in experiment [2] (setting [5]), the inhibition at 10 µM was found to be 8%. Moreover, the inhibition at 0.1 µM in experiment [3] (setting [6]) was 42%.

In the case of `O=C(NCCCN1CCC(O)(Cc2ccccc2)CC1)c1ccc(O)cc1` [S/38, N-[3-(4-Benzyl-4-hydroxy-piperidin-1-yl)-propyl]-4-hydroxy-benzamide], the IC50 turned out to be 7300 nM in experiment [1] and 16 nM in experiment [4].

As for `Cc1ccc(CC2(O)CCN(CCCNC(=O)c3ccc(O)cc3)CC2)cc1` [T/39, 4-Hydroxy-N-[3-[4-hydroxy-4-(4-methyl-benzyl)-piperidin-1-yl]-propyl]-benzamide], the IC50 in experiment [1] was determined as 2300 nM; in experiment [4], 9 nM.

With `Cc1ccc(CC2(O)CCN(C/C=C/c3ccc(O)cc3)CC2)cc1` [V/41, (E)-1-[3-(4-Hydroxy-phenyl)-allyl]-4-(4-methyl-benzyl)-piperidin-4-ol], the values for the IC50 in experiment [1] and in experiment [4] were 3000 nM and 8 nM, respectively.
